Test results as given in US6281342A, “Pradimicin compounds” (Bristol-Myers Squibb Company, priority 1994, dated 2001).
Converted amounts (≈) assume the structure as drawn. Like-named read-outs stand apart in the source and are kept apart here.

Key:
Candida albicans A9540 [1] = assay: MIC, two-fold agar dilution, C. albicans A9540; format: cell-based
Method: (§1) Minimum inhibitory concentrations (MICs) of nine 4'-N-substituted pradimicin derivatives were determined by two-fold agar dilution method on phosphate-buffered yeast morphology agar (YMA, pH 7.0, Difco Laboratories). A 5-μl of fungal cell suspension containing 2×10^6 cells/ml (2×10^7 cells/ml for Trichophyton mentagrophytes) were spotted on the surface of the agar plates containing test compound. MICs were recorded after 40-hour incubation at 28° C. except for T. mentagrophytes, which required 60-hour incubation to produce visually evaluable growth on the drug-free control plates and were defined as the lowest antibiotic concentrations showing no growth or less than five discrete colonies per spot.
(§2) Medium: yeast morphology agar + 1/15 M phosphate buffer (pH 7.0)
(§3) Incubation conditions: 28° C., 40 hours (C. albicans ATCC 38247 & T.
(§4) Medium: Yeast morphology agar + 1/15 phosphate buffer (pH 7.0).

[2] = tested on: Candida albicans ATCC 32354; assay: MIC, two-fold agar dilution, C. albicans ATCC 32354; format: cell-based; details: ATCC32354, YMA pH 7.0, 28° C., 40 hours
Method: as §1, §2, §3, §4

[3] = Water solubility at neutral pH in PBS containing Ca^2+/Mg^2+; format: physicochemical; details: pbs with ca2+/mg2+; Table 3; water-solubility at neutral pH in phosphate buffered saline containing Ca^2+/Mg^2+
Method: The compounds of the invention have good water solubility. Typically, the water solubility is greater than 10 mg/ml when measured at neutral pH in PBS containing Ca^2+ /Mg^2+, preferably greater than 20 mg/ml.
^2) Water-solubility at neutral pH in phosphate buffered saline
containing Ca^2+ /Mg^2+.

[4] = tested on: Cryptococcus neoformans D49; assay: MIC, two-fold agar dilution, C. neoformans D49; format: cell-based; details: YMA pH 7.0, 28° C., 40 hours
Method: as §1, §2, §3, §4

[5] = tested on: Trichophyton mentagrophytes #4329; assay: MIC, two-fold agar dilution, T. mentagrophytes #4329; format: cell-based
Method: as §1, §2, §3
(§5) mentagrophytes #4329: 28° C., 60 hours).
as §4

[6] = tested on: Aspergillus fumigatus IAM 2034; assay: Therapeutic efficacy in Aspergillus fumigatus systemic infection in mice; format: in vivo, male ICR mice infected with Aspergillus fumigatus IAM 2034; details: IAM2034, 480 h; for responders at 6.3 mg/kg: 6.3 mg/kg iv; for responders at 6.3 mg/kg / responders at 12.5 mg/kg / responders at 25 mg/kg / responders at 50 mg/kg: 20th day post-infection, read-out: S/T (No. of survivors/tested) (converted); for responders at 12.5 mg/kg: 12.5 mg/kg iv; for responders at 25 mg/kg: 25 mg/kg iv; for responders at 50 mg/kg: 50 mg/kg iv
Method: (§6) The in vivo therapeutic efficacies of seven 4'-N-substituted pradimicin derivatives, KHM-1, KHM-2, KHM-3, KHM-4, KHM-5, KHM-6 and KHM-7 were evaluated in the mouse infected with Candida albicans A9540 and Aspergillus fumigatusIAM 2034. Groups of five specific-pathogen-free male ICR mice weighing 20-25 g at each dose level were intravenously infected with approximately 10 times the 50% lethal dose of C. albicans A9540 (1×10^6 cells/mouse) or A. fumigatus IAM 2034 (1×10^7 cells/mouse). Immediately after the fungal infection, test compounds dissolved with 10% DMSO in distilled water were intravenously given to the mouse at the dosed volume of 0.1 ml/10 g of body weight. […] Untreated control animals died 7 to 13 days post-infection.

Candida tropicalis 85-8 = assay: MIC, two-fold agar dilution, C. tropicalis 85-8; format: cell-based; details: 858, YMA pH 7.0, 28° C., 40 hours
Method: as §1, §2, §3, §4

Candida albicans A9540 [7] = assay: animal or person; format: in vivo, male ICR mice infected with Candida albicans A9540; details: Candida albicans; for ED50: Table 2, 95% confidence limits in parentheses, read-out: PD50 (50% protection dose)
Method: as §6

[8] = tested on: Candida tropicalis IFO 10241; assay: MIC, two-fold agar dilution, C. tropicalis IFO 10241; format: cell-based; details: IFO10241, YMA pH 7.0, 28° C., 40 hours
Method: as §1, §2, §3, §4

[9] = tested on: Aspergillus fumigatus IAM 2034; assay: MIC, two-fold agar dilution, A. fumigatus IAM 2034; format: cell-based; details: IAM2034
Method: as §1, §2, §3, §4

[10] = tested on: Saccharomyces cerevisiae ATCC 9763; assay: MIC, two-fold agar dilution, S. cerevisiae ATCC 9763; format: cell-based; details: ATCC9763, YMA pH 7.0, 28° C., 40 hours
Method: as §1, §2, §3, §4

[11] = tested on: Cryptococcus neoformans IAM 4514; assay: MIC, two-fold agar dilution, C. neoformans IAM 4514; format: cell-based; details: IAM4514
Method: as §1, §2, §3, §4

Candida albicans 83-2-14 = assay: MIC, two-fold agar dilution, C. albicans 83-2-14; format: cell-based; details: 83214, YMA pH 7.0, 28° C., 40 hours
Method: as §1, §2, §3, §4

[12] = tested on: Candida albicans IAM 4888; assay: MIC, two-fold agar dilution, C. albicans IAM 4888; format: cell-based; details: IAM4888, YMA pH 7.0, 28° C., 40 hours
Method: as §1, §2, §3, §4

[13] = tested on: Candida albicans ATCC 38247; assay: MIC, two-fold agar dilution, C. albicans ATCC 38247; format: cell-based; details: ATCC38247, YMA pH 7.0, 28° C., 60 hours (table footnote)
Method: as §1, §2, §3, §5, §4

[14] = Candida albicans A9540, YMA pH 7.0, 28° C., 40 hours, read-out: MIC
[15] = Table 3, Candida albicans A9540, YMA, read-out: MIC Ca-4
[16] = Table 3, Trichophyton mentagrophytes #4329, YMA, read-out: MIC TM-4
[17] = Trichophyton mentagrophytes #4329, YMA pH 7.0, 28° C., 60 hours, read-out: MIC
[18] = Aspergillus fumigatus, A. fumigatus, mice
[19] = Aspergillus fumigatus, Table 2, A. fumigatus, mice, iv, 95% confidence limits in parentheses, read-out: PD50 (50% protection dose)
[20] = A9540, 480 h, C. albicans, mice, iv
[21] = A9540, in Mus musculus, iv, 480 h, read-out: S/T (No. of survivors/tested)
[22] = Aspergillus fumigatus IAM 2034, YMA pH 7.0, 28° C., 40 hours, read-out: MIC
[23] = Table 3, Aspergillus fumigatus IAM 2034, YMA, read-out: MIC Af-3
[24] = Cryptococcus neoformans IAM 4514, YMA pH 7.0, 28° C., 40 hours, read-out: MIC
[25] = Table 3, Cryptococcus neoformans IAM 4514, YMA, read-out: MIC Cn-2

Structure (SMILES) | MIC (Candida albicans A9540 [1]; [14]) [µg/mL] | MIC (Candida albicans A9540 [1]; [15]) [µg/mL] | MIC [2] [µg/mL] | solubility [3] [µg/mL] | MIC [4] [µg/mL] | MIC [5, 16] [µg/mL] | MIC [5, 17] [µg/mL] | responders at 6.3 mg/kg [6, 18] [%] | responders at 12.5 mg/kg [6, 18] [%] | responders at 25 mg/kg [6, 18] [%] | responders at 50 mg/kg [6, 18] [%] | ED50 [6, 19] [mg/kg] | MIC (Candida tropicalis 85-8) [µg/mL] | ED50 (Candida albicans A9540 [7]; [20]) [mg/kg] | MIC [8] [µg/mL] | MIC [9, 22] [µg/mL] | MIC [9, 23] [µg/mL] | MIC [10] [µg/mL] | MIC [11, 24] [µg/mL] | MIC [11, 25] [µg/mL] | further results
COc1cc(O)c2c(c1)C(=O)c1c(cc3c(c1O)-c1c(cc(C)c(C(=O)N[C@H](C)C(=O)O)c1O)[C@H](O[C@@H]1O[C@H](C)[C@H](NC(=N)N[N+](=O)[O-])[C@H](O[C@@H]4OC[C@@H](O)[C@H](O)[C@H]4O)[C@H]1O)[C@H]3O)C2=O [KHM-7, 4'-Nitroquanidinopradimicin C] | 3.1 (≈ 3.39 µM) | 3.1 (≈ 3.39 µM) | 3.1 (≈ 3.39 µM) | > 20000 | 3.1 (≈ 3.39 µM) | 3.1 (≈ 3.39 µM) | 3.1 (≈ 3.39 µM) | 20 | 40 | 0 | 20 | > 50 | 12.5 (≈ 13.7 µM) | 12 | 12.5 (≈ 13.7 µM) | 3.1 (≈ 3.39 µM) | 3.1 (≈ 3.39 µM) | 3.1 (≈ 3.39 µM) | 1.6 (≈ 1.75 µM) | 1.6 (≈ 1.75 µM) | ED50 ([6]; Table 3, Aspergillus fumigatus IAM 2034, iv, read-out: PD50 (mice) Af-3): > 50 mg/kg; responders at 6.3 mg/kg (Candida albicans A9540 [7]; [21]): 40%; responders at 12.5 mg/kg (Candida albicans A9540 [7]; [21]): 60%; responders at 25 mg/kg (Candida albicans A9540 [7]; [21]): 60%; responders at 50 mg/kg (Candida albicans A9540 [7]; [21]): 80%; MIC (Candida albicans 83-2-14): 6.3 µg/mL (≈ 6.89 µM); MIC [12]: 3.1 µg/mL (≈ 3.39 µM); MIC [13]: 1.6 µg/mL (≈ 1.75 µM)
CN[C@@H]1[C@H](O[C@@H]2OC[C@@H](O)[C@H](O)[C@H]2O)[C@@H](O)[C@H](O[C@H]2c3cc(C)c(C(=O)N[C@H](C)C(=O)O)c(O)c3-c3c(cc4c(c3O)C(=O)c3cc(OC)cc(O)c3C4=O)[C@@H]2O)O[C@@H]1C [Pradimicin A, reference compound] | 12.5 (≈ 14.9 µM) | 12.5 (≈ 14.9 µM) | 3.1 (≈ 3.69 µM) | 20 (≈ 23.8 µM) | 1.6 (≈ 1.9 µM) | 3.1 (≈ 3.69 µM) | 3.1 (≈ 3.69 µM) | 0 | 20 | 60 | 100 | 23 | > 100 | 10 | > 100 | 1.6 (≈ 1.9 µM) | 0.8 (≈ 0.951 µM) | 6.3 (≈ 7.49 µM) | 1.6 (≈ 1.9 µM) | 1.6 (≈ 1.9 µM) | responders at 6.3 mg/kg (Candida albicans A9540 [7]; A9540, 480 h, C. albicans, mice, 6.3 mg/kg iv, 20th day post-infection, read-out: S/T (No. of survivors/tested) (converted)): 0%; responders at 12.5 mg/kg (Candida albicans A9540 [7]; A9540, 480 h, C. albicans, mice, 12.5 mg/kg iv, 20th day post-infection, read-out: S/T (No. of survivors/tested) (converted)): 80%; responders at 25 mg/kg (Candida albicans A9540 [7]; A9540, 480 h, C. albicans, mice, 25 mg/kg iv, 20th day post-infection, read-out: S/T (No. of survivors/tested) (converted)): 100%; responders at 50 mg/kg (Candida albicans A9540 [7]; A9540, 480 h, C. albicans, mice, 50 mg/kg iv, 20th day post-infection, read-out: S/T (No. of survivors/tested) (converted)): 100%; MIC (Candida albicans 83-2-14): > 100 µg/mL; MIC [12]: 6.3 µg/mL (≈ 7.49 µM); MIC [13]: 3.1 µg/mL (≈ 3.69 µM)
